From patent US20250255893A1, “ISOPROPYL-D-GLUCOPYRANOSIDE DERIVATIVE, AND PREPARATION METHOD THEREFOR AND USE THEREOF” (NATIONAL TSING HUA UNIVERSITY, priority 2021, published 2025)

Legend:
cortical neurons = test: In vitro cortical neuron repair (scratch injury, gap closure rate); format: cell-based, rat; conditions: 72 hours
Excerpt: (§1) As depicted in FIG. 3, the degree of neuronal axon regeneration was quantified using the gap closure rate. White dashed lines indicate the borders of injury gap, the central black area represents the region scratched by the tip of a pipette tips. The newly regenerated neurites grow from the white dashed lines toward the center of the gap. To quantify the results, we measured the lengths of gap (Lg) and distance between regenerated neurites (Ln) every 50 m. After unbiasedly drawing ten lines of equal distance, the average distance between neurites is taken: Length of gap between regenerated neurons (Ln). Gap closure rate is calculated using the formula: (Lg−Ln)/Lg. Scale bar=100 m. Images were taken using Observer Z1 microscope.
(§2) Removed the brain of E18 rat embryos and dissected into cortex and hippocampus. Subsequently, the cortex and hippocampus were separated into cortical neurons and hippocampal neurons, respectively. Then, seeded cortical neurons on 48-well plates. The first day that neurons are cultured in vitro is defined as day in vitro 0 (DIV0). On DIV2, Cytosine beta-D-arabinoside (AraC) was added to neurons to inhibit the proliferation of glial cells. On DIV8, neurons were injured using pipette tips (p10 tips) and 9.674 nM to 96.74 μM Ampelopsisionoside was added. 0.1% DMSO served as the solvent control group, and the results in the figures were standardized against the 0.1% DMSO group. After 72 hours, immunostaining was performed. TUJ1 antibody was used to label neuronal cells to observe the regrowth of neurites. Scale bar=100 m. Images were taken using Observer Z1 microscope.
(§3) Removed the brain of E18 rat embryos and dissected into cortex and hippocampus. Subsequently, the cortex and hippocampus were separated into cortical neurons and hippocampal neurons, respectively. Then, seeded cortical neurons on 48-well plates. The first day that neurons are cultured in vitro is defined as day in vitro 0 (DIV0). On DIV2, Cytosine beta-D-arabinoside (AraC) was added to neurons to inhibit the proliferation of glial cells. […]

injured brain sections = test: Ex vivo 3D brain slice culture, neurite outgrowth after scalpel injury; format: cell-based; conditions: 350 μm rat embryo brain sections, added every day, 96 hours, vs ddH2O
Procedure: (§4) The experimental procedure is depicted in FIG. 10. Took out the brain of rat embryos and embedded in low-melting agarose. The brains were sectioned using Leica microtome VT100. The tissue sections were collected with 350 μm thick and injured using a scalpel. ddH2O or Ampelopsisionside was added to injured brain sections every day. After 96 hours, immunostaining was performed. TUJ1 antibody was used to label neuron cells. GFAP antibody was used to label glial cells. DAPI was used to label nucleus. Scale bar=100 m. Images were taken using Zeiss LSM800 confocal microscope.
as §4, with “Byzantionoside B” for “Ampelopsisionside”
as §4, with “Roseoside” for “Ampelopsisionside”, “μm.” for “m.”

hippocampal neurons = test: In vitro hippocampal neuron repair (scratch injury, gap closure rate); format: cell-based, rat; conditions: 72 hours
Procedure: as §2, with “The experimental procedure is depicted in FIG. 2. Removed” for “Removed”, “seeded hippocampal” for “seeded cortical”, “to 967.4” for “to 96.74”, “neurites.” for “neurites. Scale bar=100 m.”
as §1
as §3, with “seeded hippocampal” for “seeded cortical”

retinal explants = test: Ex vivo retinal explant neuronal repair; format: cell-based, C57BL/6 mice; conditions: five days, vs ddH2O
Procedure: Retinal explants were obtained from C57BL/6 mice at postnatal day 8. Following the sacrifice of mice, the eyes were enucleated, and the eyeballs were dissected using forceps and microscissors to separate the retina and remove the vitreous. Subsequently, the dissected retinas were quartered and trimmed along the edges of the tissue using microscissors. Each quarter was cultured on an 18 mm round coverslip and placed in a 12-well plate inside a CO2 incubator at 35° C. for five days. The culture medium was replaced daily with fresh medium containing either 13.5 µM or 135 µM Byzantionoside B. On the fifth day of culture, the retinal tissues were fixed with a mixture of 0.1% glutaraldehyde solution and 4% paraformaldehyde at room temperature for one hour. Immunostaining was performed using primary antibodies against the axonal marker beta-III-tubulin (TUJ1) and DAPI to label neurons and cell nuclei, respectively. Images were acquired using a super-resolution upright confocal microscope (LSM-800, Carl Zeiss). […] The ratio of neuronal fiber area to tissue boundary perimeter was then calculated to determine the unit perimeter neuronal fiber length.
Retinal explants were obtained from C57BL/6 mice at postnatal day 8. […] The ratio of neuronal fiber area to tissue boundary perimeter was then calculated to determine the unit perimeter neuronal fiber length.

Compound	dendritic outgrowth (gap closure rate) (cortical neurons; 9.674 nM to 96.74 μM, vs 0.1% DMSO)	neurite outgrowth from injury site (injured brain sections)	neurite regrowth after injury (gap closure rate) (hippocampal neurons; 9.674 nM to 967.4 μM, vs 0.1% DMSO)	recovery of injured retinal neurons (unit perimeter neuronal fiber length) (retinal explants; 13.5 M or […])	neurite outgrowth (gap closure rate) (cortical neurons; 1.34 M to 26.84 M, vs ddH2O)	neurite regrowth after injury (gap closure rate) (hippocampal neurons; 0.13 M to 1342 μM, vs ddH2O)	recovery of injured retinal neurons (unit perimeter neuronal fiber length) (retinal explants; 13 μM or 130 μM)	dendritic outgrowth (gap closure rate) (cortical neurons; 1.29 M to 25.88 M, vs ddH2O)	neurite regrowth after injury (gap closure rate) (hippocampal neurons; 0.013 M to 1294 μM, vs ddH2O)
C[C@H](/C=C/[C@@]1(O)[C@H](C)CC(=O)CC1(C)C)O[C@@H]1O[C@H](CO)[C@@H](O)[C@H](O)[C@H]1O [Ampelopsisionoside]	effectively promotes dendritic outgrowth	promotes neurite outgrowth	promotes neurite regrowth after injury	–	–	–	–	–	–
CC1=CC(=O)CC(C)(C)[C@H]1CC[C@@H](C)O[C@@H]1O[C@H](CO)[C@@H](O)[C@H](O)[C@H]1O [Byzantionoside B]	–	promotes neurite outgrowth	–	significant recovery of injured retinal neurons	effectively promotes neurite outgrowth	promotes neurite regrowth after injury	–	–	–
CC1=CC(=O)CC(C)(C)[C@@]1(O)/C=C/[C@@H](C)O[C@@H]1O[C@H](CO)[C@@H](O)[C@H](O)[C@H]1O [Roseoside]	–	promotes neurite outgrowth	–	–	–	–	significant recovery of injured retinal neurons	effectively promotes dendritic outgrowth	promotes neurite regrowth after injury
